Measurements published in ChEMBL document CHEMBL4373746, “Structural attributes influencing unbound tissue distribution” (Eur J Med Chem, 2020).

Experiments:
[1] = Unbound tissue partition coefficient, ratio of drug level in adipose to plasma in Wistar Han rat at 1 to 2 mg/kg, iv infused for 10 to 20 hrs by LC-MS/MS analysis; conditions: adipose/plasma
[2] = Drug concentration in total brain in Wistar Han rat at 1 to 2 mg/kg, iv infused for 10 to 20 hrs by LC-MS/MS analysis; conditions: in vivo
[3] = Drug concentration in total skeletal muscle in Wistar Han rat at 1 to 2 mg/kg, iv infused for 10 to 20 hrs by LC-MS/MS analysis; conditions: in vivo
[4] = Apparent permeability of the compound across dog RRCK cells by MDCK-LE assay
[5] = Unbound tissue partition coefficient, ratio of drug level in liver to plasma in Wistar Han rat at 1 to 2 mg/kg, iv infused for 10 to 20 hrs by LC-MS/MS analysis; conditions: liver/plasma
[6] = Fraction unbound in Wistar Han rat white adipose tissue at 2 uM incubated for 6 hrs by equilibrium dialysis method
[7] = Unbound tissue partition coefficient, ratio of drug level in skeletal muscle to plasma in Wistar Han rat at 1 to 2 mg/kg, iv infused for 10 to 20 hrs by LC-MS/MS analysis; conditions: skeletal muscle/plasma
[8] = Total plasma concentration in Wistar Han rat at 1 to 2 mg/kg, iv infused for 10 to 20 hrs by LC-MS/MS analysis; conditions: in vivo
[9] = Fraction unbound in Wistar Han rat brain at 2 uM incubated for 6 hrs by equilibrium dialysis method
[10] = Fraction unbound in Wistar Han rat plasma at 2 uM incubated for 6 hrs by equilibrium dialysis method
[11] = Fraction unbound in Wistar Han rat liver at 2 uM incubated for 6 hrs by equilibrium dialysis method
[12] = Drug concentration in total white adipose tissue in Wistar Han rat at 1 to 2 mg/kg, iv infused for 10 to 20 hrs by LC-MS/MS analysis; conditions: in vivo
[13] = Fraction unbound in Wistar Han rat heart at 2 uM incubated for 6 hrs by equilibrium dialysis method
[14] = Unbound tissue partition coefficient, ratio of drug level in brain to plasma in Wistar Han rat at 1 to 2 mg/kg, iv infused for 10 to 20 hrs by LC-MS/MS analysis; conditions: brain/plasma
[15] = Fraction unbound in Wistar Han rat skeletal muscle at 2 uM incubated for 6 hrs by equilibrium dialysis method
[16] = Unbound tissue partition coefficient, ratio of drug level in heart to plasma in Wistar Han rat at 1 to 2 mg/kg, iv infused for 10 to 20 hrs by LC-MS/MS analysis; conditions: heart/plasma
[17] = Drug concentration in total heart in Wistar Han rat at 1 to 2 mg/kg, iv infused for 10 to 20 hrs by LC-MS/MS analysis; conditions: in vivo
[18] = Drug concentration in total liver in Wistar Han rat at 1 to 2 mg/kg, iv infused for 10 to 20 hrs by LC-MS/MS analysis; conditions: in vivo

SMILES	Kp uu [1]	Ct [2] [ng/mL]	Ct [3] [ng/mL]	Papp [4] [×10⁻⁶ cm/s]	Kp uu [5]	fraction unbound at 6 h, 2 µM [6]	Kp uu [7]	Cp [8] [ng/mL]	fraction unbound at 6 h, 2 µM [9]	fraction unbound at 6 h, 2 µM [10]	fraction unbound at 6 h, 2 µM [11]	Ct [12] [ng/mL]	fraction unbound at 6 h, 2 µM [13]	Kp uu [14]	fraction unbound at 6 h, 2 µM [15]	Kp uu [16]	Ct [17] [ng/mL]	Ct [18] [ng/mL]
C[C@H]1COCCN1c1nc(-c2cnc(N)nc2)c2c(n1)N([C@@]1(C)CCN(C(=O)C(C)(C)N)C1)CC2	6.9	2	38	5.1	3.6	0.281	3.5	4.5	0.0654	0.438	0.146	45	0.0824	0.065	0.16	18	400	46
Cn1nc(C(=O)NCCN2CCOCC2)cc1-c1cc2ccccc2[nH]1	1.1	19	42	33	4.4	0.189	0.57	29	0.0291	0.176	0.0714	29	0.0422	0.12	0.0664	1.3	150	300
COc1cc2c(cc1Cc1ccccc1)C[C@H](N)C(=O)N2OC(=O)N(C)C	1.1	16	32	38	0.74	0.214	0.46	18	0.0385	0.354	0.147	33	0.209	0.1	0.0886	2.5	76	33

Now from value to compound:

Kp uu [1]	Ct [2] [ng/mL]	Ct [3] [ng/mL]	Papp [4] [×10⁻⁶ cm/s]	Kp uu [5]	fraction unbound at 6 h, 2 µM [6]	Kp uu [7]	Cp [8] [ng/mL]	fraction unbound at 6 h, 2 µM [9]	fraction unbound at 6 h, 2 µM [10]	fraction unbound at 6 h, 2 µM [11]	Ct [12] [ng/mL]	fraction unbound at 6 h, 2 µM [13]	Kp uu [14]	fraction unbound at 6 h, 2 µM [15]	Kp uu [16]	Ct [17] [ng/mL]	Ct [18] [ng/mL]	SMILES
2	2.4	97	5.5	4.5	0.113	1.3	55	0.00529	0.0219	0.0115	21	0.013	0.011	0.0154	2.7	240	470	NC(=O)c1c(-c2ccc(Oc3ccc(Cl)cc3)cc2)nn([C@@H]2CCCN(C(=O)/C=C/CO)C2)c1N
0.41	69	89	22	0.24	0.00216	0.18	68	0.0077	0.0809	0.00864	1000	0.0109	0.1	0.011	0.43	220	150	Cc1ccc(NC(=O)c2cc(Oc3ccc(S(C)(=O)=O)cc3)c3c(c2)OC(C)(C)C3)nc1
1.6	4.4	24	35	0.033	0.229	0.72	450	0.0319	0.00426	0.0598	14	0.0329	0.074	0.0581	1.8	103	1.4	CC(=O)NS(=O)(=O)c1ccc(Oc2ccc(F)c(Cl)c2)c(C(F)(F)F)c1
